These results are taken from US9932300B2, “N,N′-diarylurea compounds and N,N′-diarylthiourea compounds as inhibitors of translation initiation” (President and Fellows of Harvard College, priority 2009, dated 2018).

In this assay the test system is eIF2-GTP-Met-tRNAi ternary complex. Briefly: Ternary complex assay (dual luciferase, firefly/renilla ratio) in stable KLN-tTA/pBISA-DL(ATF-4) cells; HTS and hit confirmation. On the set-up: Activity 10 uM / Activity 2.5 uM / Activity 5 uM: unit not given here. It counts as cell-based, mouse. Conditions: confirmed hits of the screen (Table 5); for Activity 5 uM: compound at 5 uM; for Activity 10 uM: compound at 10 uM; for Activity 2.5 uM: compound at 2.5 uM. From the text: For assay development, a bi-directional plasmid was designed in which a common promoter/enhancer complex drives the transcription of firefly luciferase (F-luc) ORF fused to the 5′ untranslated region (UTR) of ATF-4, and of the renilla luciferase (R-luc) ORF fused to a 90-nucleotide 5′ UTR derived from the plasmid (FIG. 6A). Because the tetracycline-regulated transactivator ((tTA), required for driving transcription from this vector) is not normally expressed in the mammalian cells, stable KLN cancer cells were constructed that expressed tTA (KLN-tTA).
The KLN-tTA colonies that drove expression of reporter genes from pBISA-DL plasmid were selected by transient transfection and dual luciferase assay. One of these KLN-tTA cell lines was transfected with the pBISA-DL^(ATF-4) expression vector, stable colonies were selected by dual luciferase assay and expanded. To determine if reduced availability of the eIF2*GTP*Met-tRNAi ternary complex increased the translation of firefly luciferase and decreased translation of renilla luciferase, selected KLN-tTA/pBISA-DL^(AFT-4) colonies were treated with thapsigargin (TG) or tunicamycin (TU), two agents known to cause phosphorylation of eIF2α.
This assay was then adapted for high throughput screening in 96 and 384 well plates. This was done by evaluating the cell density, length of exposure to compounds, DMSO tolerance and optimum firefly and renilla substrate. We then challenged these cells with thapsigargin or DMSO. […] Cell-based assays usually have higher variation than homogeneous in vitro assays due to position effect in the plate, and other variables associated with handling of cells and the plates.
Screening was conducted in 384 well white opaque plates (Nalge Nunc), 100 μl volume RPMI+10% fetal bovine serum. Cells were plated at the sub-confluent density of 10,000 cells/well, and allowed to attach for a period of 16-18 hours at 37° C., 5% CO2. Compounds were added as 1 μl of a 1 mM DMSO stock solution for a final screening concentration of 10 μM, using low-volume tips for transfer (Molecular Bioproducts). Cells were then incubated in the presence of compound for an additional sixteen hours, again at 37° C., 5% CO2. Following incubation 70 μl of the culture medium was removed from each well to allow for reagent addition and plates were allowed to equilibrate to room temperature for thirty minutes. Firefly luciferase reporter activity was then read by the addition of thirty microliters of Dual Glo Luciferase reagent (Promega), followed by one hour incubation at room temperature to allow for adequate signal buildup. Luminescence counting was conducted on a Microbeta Trilux using a 1 second read time. Renilla luciferase reporter activity was measured following addition of 30 μl Stop and Glo Luciferase reagent (Promega) and incubation identical to the one carried out for the firefly luciferase one.
Compound scores were interpreted as firefly luciferase activity divided by renilla luciferase activity, normalized to the plate's DMSO control. […] All data analysis was conducted using the BioAssay HTS software package (CambridgeSoft).
102,709 compounds in the NCI Open Chemical Repository were then screened using this HTS assay. […] Initial hits were confirmed by repeating the same dual luciferase assay in 96 well plates. Briefly, 20,000 cells/well were plated in triplicate for each concentration (10, 5 and 2.5 μM) of the compounds.

The structures appear in SMILES notation.

Consider `c1csc(-c2ccc3ccccc3n2)c1` [Compound 71690], for which the “Activity 5 uM” value is listed as 2.889 and the “Activity 10 uM” value was 3.4315.

In the case of `O=C(/C=C/c1ccccc1)OC1CCCCC1` [Compound 71968], the “Activity 5 uM” value is reported as 2.615 and the “Activity 10 uM” value is recorded as 3.5615.

Regarding `O=C(Nc1ccc(Cl)cc1)Nc1ccc(Cl)c(Cl)c1` [Compound 72005], the “Activity 5 uM” value was 11.25 and the “Activity 10 uM” value was 16.9235.

Take `O=C(OCCc1ccccc1)c1ccccc1O` [Compound 72035]: the “Activity 5 uM” value amounted to 3.275 and the “Activity 10 uM” value was determined as 3.8265.

For `CCOC(=O)c1cnc(SCc2ccccc2)nc1N` [Compound 72266], the “Activity 5 uM” value is on record as 2.946 and the “Activity 10 uM” value is listed as 3.233.

Consider `COc1cc(NC(=O)c2cc3ccccc3cc2O)c(OC)cc1Cl` [Compound 73118], for which the “Activity 5 uM” value was found to be 8.006 and the “Activity 10 uM” value is listed as 10.008.

Take `CCCCCCCCCCCCCCCCCC[N+](C)(C)C.Cc1ccc(S(=O)(=O)[O-])cc1` [Compound 74566]: the “Activity 5 uM” value worked out at 1.7 and the “Activity 10 uM” value is listed as 3.7.

As for `CCCCCCCCCCCCCCCCCC[N+](C)(C)C.O=S(=O)([O-])c1ccccc1` [Compound 74568], the “Activity 5 uM” value worked out at 2.1 and the “Activity 10 uM” value is on record as 4.8.

As to `C(=P(c1ccccc1)(c1ccccc1)c1ccccc1)[P+](c1ccccc1)(c1ccccc1)c1ccccc1.[Br-]` [Compound 74740], the “Activity 5 uM” value was 5.6 and the “Activity 10 uM” value is 4.1.

On to `Cl.NC(N)=N/N=C/N/N=C/c1ccccc1O` [Compound 75971], for which the “Activity 5 uM” value stood at 3.111 and the “Activity 10 uM” value was 3.3355.

In the case of `CC(=O)[O][Sn]([c]1ccccc1)([c]1ccccc1)[c]1ccccc1` [Compound 76068], the “Activity 2.5 uM” value came to 1.02 and the “Activity 10 uM” value was determined as 3.68.

In the case of `Oc1ccccc1/C=N/NC(=S)Nc1ccc2cn[nH]c2c1` [Compound 76429], the “Activity 5 uM” value is reported as 4.409 and the “Activity 10 uM” value is listed as 5.2405.

For `ClCCN(CCCl)c1ccc(C2=Nc3cccc4cccc(c34)N2)cc1` [Compound 78577], the “Activity 2.5 uM” value was 0.74 and the “Activity 10 uM” value is recorded as 3.56.

With `CCCCCCCCCCCC[n+]1ccc(C)cc1C.Cc1ccc(S(=O)(=O)[O-])cc1` [Compound 78949], the “Activity 5 uM” value stood at 4.1 and the “Activity 10 uM” value is reported as 7.7.

Regarding `O=Nc1c2cc3ccccc3[nH]c-2c2ccccc12` [Compound 81523], the “Activity 5 uM” value turned out to be 7.526 and the “Activity 10 uM” value was determined as 8.879.

`Clc1ccc(/C=N\N2CCCCCC2)cc1` [Compound 82278]: the “Activity 5 uM” value is on record as 3.288 and the “Activity 10 uM” value is 3.1525.

With `CCCCCCCCCCCCCC[n+]1ccccc1.[Cl-]` [Compound 82910], the “Activity 5 uM” value is recorded as 7.654 and the “Activity 10 uM” value was 12.4425.

On to `CCN(CC)c1ccc(/C=C2\C=Cc3ccccc32)cc1` [Compound 83089], for which the “Activity 5 uM” value is on record as 10.155 and the “Activity 10 uM” value stood at 5.1265.

As to `O=[N+]([O-])c1ccc(N=Nc2c(Cl)cc(O)cc2Cl)cc1` [Compound 83318], the “Activity 5 uM” value was 12.03 and the “Activity 10 uM” value is given as 14.6225.

With `CNc1c(F)cc(N=Nc2ccccc2)cc1F` [Compound 83335], the “Activity 2.5 uM” value is 2.77 and the “Activity 10 uM” value was 3.31.

With `CCCCCCCCCCCC[N+](C)(C)C.[O-]c1c(Cl)c(Cl)c(Cl)c(Cl)c1Cl` [Compound 85573], the “Activity 5 uM” value stood at 2.1 and the “Activity 10 uM” value came to 3.1.

As to `CC(=O)c1cccc(N=NNc2cccc(C(C)=O)c2)c1` [Compound 85646], the “Activity 5 uM” value is listed as 3.127 and the “Activity 10 uM” value was 4.18.

Take `C1=Cc2ccccc2/C1=C/c1ccc2c(c1)OCO2` [Compound 86430]: the “Activity 5 uM” value is on record as 4.871 and the “Activity 10 uM” value is given as 6.063.

For `COc1ccc(NNc2ccc(OC)cc2)cc1` [Compound 86489], the “Activity 2.5 uM” value is recorded as 2.73 and the “Activity 10 uM” value worked out at 3.17.

Take `Cc1ccc(NN(C)c2ccc(C)cc2)cc1` [Compound 86537]: the “Activity 2.5 uM” value was 3.85 and the “Activity 10 uM” value is 7.51.

Regarding `Cc1ccc(NNc2ccc(C)cc2)cc1` [Compound 86544], the “Activity 5 uM” value worked out at 3.954 and the “Activity 10 uM” value came out at 4.845.

As to `O=c1[nH]cnc2nc(-c3ccc(N(CCCl)CCCl)cc3)[nH]c12` [Compound 87086], the “Activity 5 uM” value worked out at 6.572 and the “Activity 10 uM” value was found to be 5.461.

For the compound `Br.CCC1=C(C)/C(=C/c2[nH]c(C)c(CC)c2C)N=C1C` [Compound 87240], the “Activity 2.5 uM” value came out at 1.45 and the “Activity 10 uM” value came to 37.28.

Take `CN(C)c1ccc(N=Nc2ccc3ncccc3c2)cc1` [Compound 87323]: the “Activity 5 uM” value amounted to 5.277 and the “Activity 10 uM” value worked out at 6.0905.

Regarding `OCCc1ccc(-n2cnc3c(Nc4ccc(Cl)cc4)ncnc32)cc1` [Compound 87695], the “Activity 2.5 uM” value amounted to 3.28 and the “Activity 10 uM” value was found to be 4.42.

As for `O=Cc1cc(CCCCCCc2ccc(O)c(C=O)c2)ccc1O` [Compound 88001], the “Activity 5 uM” value amounted to 12 and the “Activity 10 uM” value was found to be 21.4655.

Consider `Cc1cc(N(CCCl)CCCl)ccc1CN1CCCN(Cc2ccc(N(CCCl)CCCl)cc2C)C1c1ccccc1O` [Compound 88655], for which the “Activity 2.5 uM” value amounted to 0.7 and the “Activity 10 uM” value worked out at 18.32.

As for `CN(CCC(=O)/C(=C\c1ccc(Cl)cc1)c1ccccc1)Cc1ccccc1.Cl` [Compound 89160], the “Activity 2.5 uM” value came to 9.22.

As for `ClCCN(CCCl)c1ccc(C(Cl)(c2ccc(N(CCCl)CCCl)cc2)c2ccc(N(CCCl)CCCl)cc2)cc1` [Compound 89864], the “Activity 5 uM” value was 9.4 and the “Activity 10 uM” value was found to be 10.1.

Consider `Clc1ccccc1-c1ncc(-c2ccccc2)o1` [Compound 90299], for which the “Activity 2.5 uM” value worked out at 2.1 and the “Activity 10 uM” value is 3.21.

Take `Clc1ccc(-c2ncc(-c3ccccc3)o2)c(Cl)c1` [Compound 90467]: the “Activity 2.5 uM” value was determined as 2.6 and the “Activity 10 uM” value turned out to be 3.88.

Regarding `Cc1cccc(-c2ncc(-c3ccccc3)o2)c1` [Compound 90777], the “Activity 5 uM” value is given as 6.553 and the “Activity 10 uM” value is recorded as 8.406.

Regarding `CCC[N+]1=C(/C=C/c2cc(C)c3cccnc3c2O)C(C)(C)c2ccccc21` [Compound 91815], the “Activity 2.5 uM” value came to 3.3 and the “Activity 10 uM” value was found to be 15.17.

In the case of `CC1=C/C(=C\C=C2/N(C)c3c(C)cccc3C2(C)C)C(=O)c2ncccc21` [Compound 91816], the “Activity 2.5 uM” value is reported as 17.64 and the “Activity 10 uM” value was 29.75.

`Cc1ccc(O)c(-n2nc3ccccc3n2)c1` [Compound 91885]: the “Activity 5 uM” value is recorded as 3.742 and the “Activity 10 uM” value amounted to 4.473.

For the compound `O=C1c2ccccc2C(=O)c2c1ccc1c2[nH]c2ccccc21` [Compound 92938], the “Activity 2.5 uM” value came to 3.41 and the “Activity 10 uM” value is recorded as 4.68.

With `COc1ccc(-c2coc3cc(O)ccc3c2=O)cc1` [Compound 93360], the “Activity 5 uM” value is reported as 11.08 and the “Activity 10 uM” value is 10.283.

Consider `Cc1cc2c(C)c3cccc[n+]3cc2c2ccccc12.[O-][Cl+3]([O-])([O-])[O-]` [Compound 93861], for which the “Activity 5 uM” value is 2.622 and the “Activity 10 uM” value amounted to 3.171.

For `Cc1cc(/C=N/Nc2ccc3ccccc3n2)c(O)c2ncccc12` [Compound 94029], the “Activity 5 uM” value came out at 1.934 and the “Activity 10 uM” value stood at 3.2135.

Turning to `O=C(OC1CC2CC1C1CC=CC21)c1ccc([N+](=O)[O-])cc1` (stereo not shown) [Compound 94582], the “Activity 5 uM” value is recorded as 17.83 and the “Activity 10 uM” value is recorded as 17.458.

In the case of `O=C(OC1CC2CC1C1CC3OC3C21)c1ccccc1` (stereo not shown) [Compound 94585], the “Activity 5 uM” value is 3.148 and the “Activity 10 uM” value worked out at 3.525.
